Data set [1] deals with T1, rat brain synaptosomal membranes (Rattus norvegicus, UniProt P23978).
T1 construct: Synaptosomal membranes were prepared using the whole brain without cerebellum, brainstem, or olfactory bulb; from tissue; host or cells: rat whole brain without cerebellum, brainstem or olfactory bulb; synaptosomal membranes
In words: Saturation binding of [3H]E2730 in rat brain synaptosomal membranes. As to conditions: [3H]E2730, Scatchard plot. Here is the method: Synaptosomal membranes were prepared using the whole brain without cerebellum, brainstem, or olfactory bulb from Sprague Dawley rats (male, 7 weeks old) or human cerebral cortex based on Fuks et al.[10] and Hanada et al.[11] Synaptosomal membranes (0.4 mg protein/tube) were incubated with 9.8–5000 nM [^3H]E2730 for 120 minutes at 4°C. Non‐specific binding was defined as the residual binding observed in the presence of 1 mM unlabeled E2730. […] The filters were washed three times with ice‐cold 50 mM Tris–HCl buffer (pH 7.4) and incubated overnight in a scintillator (PerkinElmer), then the radioactivity was measured by a liquid scintillation counter (PerkinElmer).

Data set [2] has as its system panel of 86 receptors, transporters, and ion channels. Nature of the data set: Binding panel assay. As to conditions: tested at 30 and 300 μM. As to the method: In this binding panel assay, E2730 was tested at 30 and 300 μM.
The nature of data set [3]: Accelerating rotarod test in mice (motor coordination). As to conditions: male, ddY, mouse, in vivo, oral, 1 hour before test, read-out: TD50 (95% CI) in mouse rotarod test. Here is the method: Motor incoordination is one of the most common AEs associated with the use of ASMs.[9] Therefore, motor coordination was evaluated in mice receiving E2730 to assess if it is a new ASM candidate with a wide margin between therapeutic effects and AEs. E2730 (50–400 mg/kg) or vehicle was orally administered in ddY mice (male, 5 weeks old) 1 hour before the rotarod test, and the latency for mice to fall off the rod was measured. The rod rotation of the rotarod apparatus (Muromachi Kikai) was continuously accelerated from 0 to 40 rpm in a cut‐off time of 180 seconds.
A general note: In the rotarod test animals must keep their balance on a rotating rod.

The target of data set [4] is T1, rat brain synaptosomal membranes. Nature of the data set: Competitive displacement of [3H]E2730 binding with ASMs. As to conditions: 20 nM [3H]E2730; unlabeled E2730 0.1-10 μM; ASMs at 10-3000 μM. Here is the method: Unlabeled E2730 (0.1–10 μM) was also assessed to confirm a representative displacement. Non‐specific binding was defined as the residual binding observed in the presence of 1 mM unlabeled E2730. Radioactivity of the synaptosome‐bound radioligand was measured in the same way as described above.
(Displacement assays read how much labelled ligand stays bound in the presence of the test substance.)

Another data set has as its system Scn1a+/- mice. In words: Hyperthermia-induced seizures in Scn1a+/- mice (Dravet syndrome model). The format is in vivo, mouse. Here is the method: Scn1a heterozygous mutant (Scn1a ^+/−) mice, a model of Dravet Syndrome (DS), and the littermate wild‐type (Scn1a ^+/+) mice (male, 24–28 days postnatal; Jackson Laboratory, US) received E2730 (10, 20 mg/kg) or vehicle orally 1 hour before hyperthermia stimulation. A rectal temperature probe (Physitemp, NJ) was fitted at 50 minutes post‐treatment, and mice were acclimated to the probe and test chamber for 10 minutes. At 1‐hour post‐treatment, core body temperature was elevated by a heat lamp connected to a feedback temperature controller (Physitemp) by 0.5°C every 2 minutes until a maximum of 42.5°C was reached. The threshold body temperatures for generalized tonic–clonic seizures were recorded for each mouse. The cut‐off time was set as 180 seconds.

Another data set concerns the target T2, hGAT2 (Homo sapiens, UniProt Q9NSD5).
T2 construct: expressed in transfected cells; host or cells: HEK293
T2 sequence (Q9NSD5 1-602): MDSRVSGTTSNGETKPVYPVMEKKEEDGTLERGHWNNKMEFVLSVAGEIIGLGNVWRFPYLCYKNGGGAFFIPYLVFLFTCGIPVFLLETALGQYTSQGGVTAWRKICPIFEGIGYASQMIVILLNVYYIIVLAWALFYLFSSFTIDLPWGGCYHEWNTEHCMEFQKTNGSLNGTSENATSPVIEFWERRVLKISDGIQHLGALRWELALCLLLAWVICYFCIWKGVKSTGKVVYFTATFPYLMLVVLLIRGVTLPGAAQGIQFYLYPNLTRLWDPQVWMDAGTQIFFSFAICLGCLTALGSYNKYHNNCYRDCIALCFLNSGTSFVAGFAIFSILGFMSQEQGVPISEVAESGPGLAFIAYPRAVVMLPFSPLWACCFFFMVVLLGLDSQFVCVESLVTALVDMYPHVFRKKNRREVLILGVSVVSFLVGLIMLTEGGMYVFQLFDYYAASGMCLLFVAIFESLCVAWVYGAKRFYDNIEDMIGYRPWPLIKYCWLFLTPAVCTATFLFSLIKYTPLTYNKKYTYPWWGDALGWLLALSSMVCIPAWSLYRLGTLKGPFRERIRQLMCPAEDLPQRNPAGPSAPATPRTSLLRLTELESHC
Nature of the data set: [3H]GABA uptake in hGAT2 stably expressing HEK293 cells. The data set is classed as cell-based. As to conditions: 50 μM [3H]GABA. As to the method: HEK293 cells stably expressing human GAT1 (hGAT1), GAT2 (hGAT2), GAT3 (hGAT3), or betaine/GABA transporter 1 (hBGT‐1) were plated onto 96‐well microtiter plates at a density of 4.0 × 10^4 cells/well in Dulbecco's Modified Eagle's Medium (DMEM, containing 10% fetal bovine serum, 100 units/mL penicillin, 100 μg/mL streptomycin, 1% non‐essential amino acid solution, and 25 mM HEPES) and incubated overnight at 37°C in a 5% CO2 atmosphere. After washing the cells with Hanks’ balanced salt solution (HBSS, containing 140 mg/L CaCl2, 100 mg/L MgCl2, 20 mM HEPES, and 10 mM NaOH), E2730 (0.0128–1000 μM) was added to the plate. Following the addition of 50 μM [^3H]GABA, cells were incubated for 5 minutes at 37°C in a 5% CO2 atmosphere and then washed with cold HBSS. Washed cells were incubated in a scintillator for 1 hour at room temperature, followed by radioactivity measurements using a liquid scintillation counter.

A further data set has as its target T3, hGAT1 (Homo sapiens, UniProt P30531).
T3 construct: expressed in transfected cells; host or cells: HEK293
In words: [3H]GABA uptake in hGAT1 cells under different GABA concentrations. As to conditions: [3H]GABA 0.01-500 μM. The data set is classed as cell-based. As to the method:
hGAT1 stably expressing HEK293 cells were plated onto 96‐well microtiter plates at a density of 4.0 × 10^4 cells/well in DMEM and incubated overnight at 37°C in a 5% CO2 atmosphere. After washing the cells with assay buffer, E2730 (0.0128–1000 μM), tiagabine (Tokyo Chemical Industry; 0.000256–100 μM), or vehicle was added to the plate in the presence of 1% DMSO. After adding [^3H]GABA (0.01–500 μM), the plate was incubated for 5 minutes at 37°C in a 5% CO2 atmosphere. The radioactivity of the treated cells was assessed following the same method described above.

Broadly, the Kd is a measure of binding affinity in units of concentration. What is called TD50 is the dose at which the toxic effect under study appears in half of the subjects. A word on the IC50: it is the point on the concentration scale where inhibition reaches its midpoint.

Each structure is given as a SMILES string.

T3 sequence (P30531 whole entry): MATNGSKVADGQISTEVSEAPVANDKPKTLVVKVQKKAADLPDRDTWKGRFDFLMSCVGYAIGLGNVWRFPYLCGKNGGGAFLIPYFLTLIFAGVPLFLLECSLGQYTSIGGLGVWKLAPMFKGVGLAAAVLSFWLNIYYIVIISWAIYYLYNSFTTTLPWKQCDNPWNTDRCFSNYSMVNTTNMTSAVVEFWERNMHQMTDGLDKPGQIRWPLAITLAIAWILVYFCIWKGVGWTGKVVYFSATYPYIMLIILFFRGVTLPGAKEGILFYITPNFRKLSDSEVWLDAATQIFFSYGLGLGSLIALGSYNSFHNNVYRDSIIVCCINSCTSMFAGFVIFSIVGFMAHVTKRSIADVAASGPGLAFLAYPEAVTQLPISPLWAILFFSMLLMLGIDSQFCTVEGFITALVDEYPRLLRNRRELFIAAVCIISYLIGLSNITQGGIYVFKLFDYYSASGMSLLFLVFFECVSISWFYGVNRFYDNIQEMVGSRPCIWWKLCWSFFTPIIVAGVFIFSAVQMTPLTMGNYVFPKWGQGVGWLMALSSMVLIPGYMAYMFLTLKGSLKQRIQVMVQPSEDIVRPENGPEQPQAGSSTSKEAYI

The molecule `NS(=O)(=O)N[C@H]1c2c(F)cc(F)cc2CC1(F)F` [E2730] came in with a Bmax in data set [1] of 3419 fmol/mg protein. Moreover, binding in data set [1] was put at a Kd of 0.553 µM. Moreover, in data set [2], the “binding in panel assay” value is on record as “no significant binding”. Also, the TD50 at 1 h in data set [3] stood at 350 mg/kg. For the same molecule, in data set [4], the “displacement of [3H]E2730 binding” value is “displaced the radiolabeled [^3H]E2730 in a concentration‐dependent manner”. For the same molecule, the “seizure occurrence in littermate WT (Scn1a+/+) mice” value with Scn1a+/- mice (20 mg/kg, maximum temperature of 42.5°C) is “No seizures occurred”. Also, the “median threshold body temperature for generalized tonic-clonic seizures” value turned out to be 41.2 °C with Scn1a+/- mice (Scn1a+/- mice, 10 mg/kg oral) and 42.4 °C in the data set on Scn1a+/- mice (Scn1a+/- mice, 20 mg/kg oral). For the same molecule, the “Minimum effective dose, hyperthermia-induced seizures” value in the data set with Scn1a+/- mice (Scn1a+/- mice, oral, footnote a: minimum effective dose) is 10 mg/kg. Moreover, at hGAT2, the IC50 is greater than 1000 µM. On hGAT1, the “dependence of GAT1 inhibition on ambient GABA concentration” value is “positively correlated with the ambient GABA concentration”.

Values taken from article PMC10472371, “Discovery of E2730, a novel selective uncompetitive GAT1 inhibitor, as a candidate for anti‐seizure medication” (Epilepsia Open, 2023).
